In this assay the test system is human iPS cells. Nature of the assay: treatment efficiency by flow cytometry (positive percentage of CD75). Format: cell-based. Here is the method:
The culture and the treatment were performed in the same manner as in Example 1 except that the treatment was performed under conditions in which a concentration of PD0325901 was 0.3 to 1.0 μmol/L, and subculture was performed for about 2 weeks after day 9. The completion of the treatment in Example 1 was evaluated by a positive percentage of a cell surface marker CD75. The cultured human iPS cells were detached with TrypLE™ Select, and stained with Alexa Fluor 647 Mouse Anti-Human CD75 antibody. A positive percentage of CD75 was analyzed by a flow cytometer Attune NxT.
Background: In flow cytometry, cells or beads pass a laser one at a time.

In the case of `O=C(NOC[C@H](O)CO)c1ccc(F)c(F)c1Nc1ccc(I)cc1F` [PD0325901, N-[(2R)-2,3-dihydroxypropoxy]-3,4-difluoro-2-[(2-fluoro-4-iodophenyl)amino]-benzamide], the CD75 result (any of the cell lines, PD0325901 within the range of 0.3 to 0.5 μmol/L) was “not positive”. For the same compound, where the note is “three lines of human iPS cells, PD0325901 at 0.3 to 1.0 μmol/L”, the “positive percentage of CD75” value was “increase in positive percentage of CD75”.

These data come from patent US20200362302A1, “METHOD FOR PRODUCING CELL” (FUJIFILM Corporation, priority 2018, published 2020).
